Results from ChEMBL document CHEMBL1154445, “Identification of "toxicophoric" features for predicting drug-induced QT interval prolongation” (Eur J Med Chem, 2008).

Experiments:
[1] = target: Voltage-gated inwardly rectifying potassium channel KCNH2 (Homo sapiens, UniProt Q12809); test: Inhibition of human ERG channel in HEK293 cells by voltage-clamp method; settings: for pIC50(uM): human
Cavia porcellus [2] = test: Cardiotoxicity in iv dosed Dunkin-Hartley guinea pig assessed as drug level required to evoke 50 ms QTc prolongation administered as 3 fold cumulative doses measured every 10 seconds at end of every 20 mins follow up period of individual dose by ECG
Cavia porcellus [3] = test: Cardiotoxicity in Dunkin-Hartley guinea pig assessed as maximal QTc prolongation time at 10 mg/kg, iv administered as 3 fold cumulative doses measured every 10 seconds at end of every 20 mins follow up period of individual dose by ECG; assay type: toxicity, organism-based; parameters: dose 10 mg/kg, route intravenous; settings: in vivo
Cavia porcellus [4] = test: Cardiotoxicity in Dunkin-Hartley guinea pig assessed as maximal QTc prolongation time at 3 mg/kg, iv administered as 3 fold cumulative doses measured every 10 seconds at end of every 20 mins follow up period of individual dose by ECG; assay type: toxicity, organism-based; parameters: dose 3 mg/kg, route intravenous; settings: in vivo
Cavia porcellus [5] = test: Toxicity to Dunkin-Hartley guinea pig assessed as marked bradyarrhythmia and death at 10 mg/kg, iv; assay type: organism-based; parameters: dose 10 mg/kg, route intravenous; settings: in vivo

Voltage-gated inwardly rectifying potassium channel KCNH2, sequence (Q12809 whole entry): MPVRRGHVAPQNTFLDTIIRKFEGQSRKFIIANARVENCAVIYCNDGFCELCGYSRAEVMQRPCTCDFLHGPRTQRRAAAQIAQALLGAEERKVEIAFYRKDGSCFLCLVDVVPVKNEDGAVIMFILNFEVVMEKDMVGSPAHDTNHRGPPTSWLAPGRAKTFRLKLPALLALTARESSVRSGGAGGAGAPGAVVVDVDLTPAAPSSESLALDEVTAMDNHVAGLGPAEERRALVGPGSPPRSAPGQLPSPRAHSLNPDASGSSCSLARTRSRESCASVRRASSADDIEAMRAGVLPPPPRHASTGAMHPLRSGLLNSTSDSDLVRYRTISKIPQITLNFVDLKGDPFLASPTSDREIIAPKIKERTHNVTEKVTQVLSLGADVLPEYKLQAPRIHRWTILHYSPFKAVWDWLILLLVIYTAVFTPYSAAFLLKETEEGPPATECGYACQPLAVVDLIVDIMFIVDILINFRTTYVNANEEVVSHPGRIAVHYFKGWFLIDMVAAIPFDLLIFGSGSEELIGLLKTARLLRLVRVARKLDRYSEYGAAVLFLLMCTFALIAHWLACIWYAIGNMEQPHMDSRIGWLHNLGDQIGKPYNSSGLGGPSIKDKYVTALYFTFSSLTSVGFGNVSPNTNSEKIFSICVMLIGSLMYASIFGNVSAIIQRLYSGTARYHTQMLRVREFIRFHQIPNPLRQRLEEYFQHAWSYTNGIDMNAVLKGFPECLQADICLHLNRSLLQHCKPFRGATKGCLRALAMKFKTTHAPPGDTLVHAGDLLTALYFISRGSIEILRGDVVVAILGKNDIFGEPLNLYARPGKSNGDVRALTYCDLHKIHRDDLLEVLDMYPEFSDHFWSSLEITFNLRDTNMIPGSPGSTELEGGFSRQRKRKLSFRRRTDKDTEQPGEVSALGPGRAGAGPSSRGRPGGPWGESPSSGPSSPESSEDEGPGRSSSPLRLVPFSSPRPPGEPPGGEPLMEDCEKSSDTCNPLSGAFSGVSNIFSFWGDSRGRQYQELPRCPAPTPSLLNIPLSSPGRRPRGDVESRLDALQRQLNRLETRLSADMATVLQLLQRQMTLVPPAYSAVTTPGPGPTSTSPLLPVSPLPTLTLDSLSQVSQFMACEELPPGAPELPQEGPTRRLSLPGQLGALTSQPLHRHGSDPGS

| Compound | EC50 (Cavia porcellus [2]) [µmol/kg] | pEC50 (Cavia porcellus [2]) | Emax (Cavia porcellus [3]) [ms] | further results |
| --- | --- | --- | --- | --- |
| CN1CC(=O)N2[C@H](c3ccc4c(c3)OCO4)c3[nH]c4ccccc4c3C[C@@H]2C1=O |  |  |  | IC50 [1]: 100 µM |
| CCC1(c2ccccc2)C(=O)NC(=O)NC1=O [PHENOBARBITAL] |  |  |  | pIC50(uM) ([1]; HEK293 cells expressing human ERG channel): -3.48 |
| C=C[C@H]1C[N@@]2CC[C@H]1C[C@@H]2[C@@H](O)c1ccnc2ccc(OC)cc12 [QUINIDINE] | 8.34 | 2.55 | 78.6 |  |
| CCCCNc1ccc(C(=O)OCCN(C)C)cc1 [TETRACAINE] | 9.04 | 2.62 | 91.5 |  |
| O=C(CCCN1CCC(O)(c2cccc(C(F)(F)F)c2)CC1)c1ccc(F)cc1 [TRIFLUPERIDOL] | 7.65 | 2.51 | 74.7 |  |
| CN1CCC[C@H]1c1cccnc1 [NICOTINE] |  |  |  | pIC50(uM) ([1]; hek293): -2.39 |
| CC(C)NCC(O)c1ccc(NS(C)(=O)=O)cc1 (stereo not given) [SOTALOL] | 6.2 | 2.77 | 97.3 |  |
| Cc1nc2sccn2c(=O)c1CCN1CCC(=C(c2ccc(F)cc2)c2ccc(F)cc2)CC1 [RITANSERIN] | 0.19 | 4.05 |  | Emax (Cavia porcellus [4]): 106.8 ms; Activity (Cavia porcellus [5]): Toxic |
| Oc1ccc(CCN2CCC(Nc3nc4ccccc4n3Cc3ccc(F)cc3)CC2)cc1 [DESMETHEYLASTEMIZOLE] |  |  |  | IC50 [1]: 0.001 µM |
| CNCCC(Oc1ccccc1OC)c1ccccc1 (stereo not given) [NISOXETINE] |  |  | 37.5 |  |
| COc1cc(N)c(Cl)cc1C(=O)NC1CCN(CCCOc2ccc(F)cc2)CC1OC (stereo not given) [CISAPRIDE] | 2.12 | 3 | 81.9 |  |
| O=C(CCCN1CCC(O)(c2ccc(Cl)cc2)CC1)c1ccc(F)cc1 [HALOPERIDOL] | 0.88 | 3.48 | 123.3 |  |
| COc1ccc(CCN2CCC(Nc3nc4ccccc4n3Cc3ccc(F)cc3)CC2)cc1 [ASTEMIZOLE] | 0.39 | 3.74 |  |  |
| CCCN(CCC)C1CCc2cccc(O)c2C1 (stereo not given) [8-OH-DPAT] | 4.57 | 2.95 | 116.3 |  |
| O=C(CCCN1CCC2(CC1)C(=O)NCN2c1ccccc1)c1ccc(F)cc1 [SPIPERONE] |  |  | 100 |  |
| COC(=O)C1=CC[C@@H]2CC[C@H]1N2C [METHYLECGONIDINE] |  |  |  | pIC50(uM) ([1]; hek293): -2.23 |
| CN1CCN(C2=Nc3ccccc3Nc3sc(CO)cc32)CC1 |  |  |  | IC50 [1]: 11.5 µM |
